Data: patent US20220169632A1, “METHODS AND MATERIALS FOR INCREASING OR MAINTAINING NICOTINAMIDE MONONUCLEOTIDE ADENYLYL TRANSFERASE-2 (NMNAT2) POLYPEPTIDE LEVELS” (University of Pittsburgh - Of the Commonwealth System of …, priority 2019, published 2022)

system: NMNAT2; experiment: NMNAT2-Hibit nano-luciferase activity in transfected U87MG cells, 5 μM, 48 hours; type: cell-based; conditions: NMNAT2-Hibit luciferase plasmid, 48 hours (Table D)
Protocol: Selected compounds were tested in vitro. Briefly, U87MG cells were transfected with NMNAT2-Hibit luciferase plasmid. Cells were treated with test compound at 5 μM for 48 hours. Cells were then collected and assayed for nano-luciferase activity.

SMILES	D: compound efficacy for NMNAT2 activation; increase in NMNAT2 luciferase activity
O=C(Cn1cc(C(=O)C(F)(F)F)c2ccccc21)NCc1ccccc1 [BC181201]	+++ (“+++” >100% increase in NMNAT2 luciferase activity.)
O=C(Cn1cc(C(=O)C2CC2)c2ccccc21)NCc1ccco1 [BC181202]	+ (“+” <20% increase in NMNAT2 luciferase activity.)
O=C(Cn1cc(C(=O)C2CC2)c2ccccc21)NCc1ccccc1 [BC181203]	++ (“++” >20% and <100% increase in NMNAT2 luciferase activity.)
O=C(Cn1cc(C(=O)C2=CC=CC2)c2ccccc21)NCc1ccccc1 [BC181204]	++ (“++” >20% and <100% increase in NMNAT2 luciferase activity.)
CC1CCN(C(=O)Cn2cc(C(=O)c3ccccc3)c3ccccc32)CC1 [BC181205]	+ (“+” <20% increase in NMNAT2 luciferase activity.)
O=C(Cn1cc(C(=O)c2ccccc2)c2ccccc21)NCc1ccco1 [BC181206]	++ (“++” >20% and <100% increase in NMNAT2 luciferase activity.)
O=C(Cn1cc(C(=O)c2ccccc2)c2ccccc21)NCC1=CC=CC1 [BC181207]	++ (“++” >20% and <100% increase in NMNAT2 luciferase activity.)
Cc1cccc(NC(=O)Cn2cc(C(=O)c3ccccc3)c3ccccc32)c1 [BC181208]	+ (“+” <20% increase in NMNAT2 luciferase activity.)
Cc1ccc(NC(=O)Cn2cc(C(=O)c3ccccc3)c3ccccc32)cc1 [BC181209]	+ (“+” <20% increase in NMNAT2 luciferase activity.)
Cc1cccc(NC(=O)Cn2cc(C(=O)c3ccccc3)c3ccccc32)c1C [BC181210]	++ (“++” >20% and <100% increase in NMNAT2 luciferase activity.)
Cc1ccc(C)c(NC(=O)Cn2cc(C(=O)c3ccccc3)c3ccccc32)c1 [BC181211]	++ (“++” >20% and <100% increase in NMNAT2 luciferase activity.)
Cc1ccc(NC(=O)Cn2cc(C(=O)c3ccccc3)c3ccccc32)cc1C [BC181212]	+ (“+” <20% increase in NMNAT2 luciferase activity.)
COc1ccc(NC(=O)Cn2cc(C(=O)c3ccccc3)c3ccccc32)cc1 [BC181213]	+ (“+” <20% increase in NMNAT2 luciferase activity.)
COCCNC(=O)Cn1cc(C(=O)c2ccccc2)c2ccccc21 [BC181214]	+ (“+” <20% increase in NMNAT2 luciferase activity.)
O=C(Cn1cc(C(=O)c2ccccc2)c2ccccc21)Nc1ccc(Br)cc1 [BC181215]	+ (“+” <20% increase in NMNAT2 luciferase activity.)
O=C(Cn1cc(C(=O)c2ccccc2)c2ccccc21)NCc1ccc2c(c1)OCO2 [BC181216]	+ (“+” <20% increase in NMNAT2 luciferase activity.)
CCN(CC)C(=O)Cn1cc(C(=O)c2ccccc2)c2ccccc21 [BC181217]	+ (“+” <20% increase in NMNAT2 luciferase activity.)
CC1CCCCN1C(=O)Cn1cc(C(=O)c2ccccc2)c2ccccc21 (centres unmarked) [BC181218]	+ (“+” <20% increase in NMNAT2 luciferase activity.)
CC1CCCC(C)N1C(=O)Cn1cc(C(=O)c2ccccc2)c2ccccc21 (centres unmarked) [BC181219]	++ (“++” >20% and <100% increase in NMNAT2 luciferase activity.)
O=C(Cn1cc(C(=O)C2CCCCC2)c2ccccc21)NCc1ccco1 [BC181220]	+++ (“+++” >100% increase in NMNAT2 luciferase activity.)
O=C(Cn1cc(C(=O)C2CCCCC2)c2ccccc21)NCc1ccccc1 [BC181221]	+ (“+” <20% increase in NMNAT2 luciferase activity.)
O=C(Cn1cc(C(=O)C2CCCCC2)c2ccccc21)NCCc1ccccc1 [BC181222]	++ (“++” >20% and <100% increase in NMNAT2 luciferase activity.)
O=C(Cn1cc(C(=O)c2ccco2)c2ccccc21)NCc1ccccc1 [BC181223]	+ (“+” <20% increase in NMNAT2 luciferase activity.)
CC(NC(=O)Cn1cc(C(=O)c2ccccc2)c2ccccc21)c1ccccc1 (centres unmarked) [BC181224]	+ (“+” <20% increase in NMNAT2 luciferase activity.)
CC(NC(=O)Cn1cc(C(=O)C2CCCCC2)c2ccccc21)c1ccccc1 (centres unmarked) [BC181225]	+ (“+” <20% increase in NMNAT2 luciferase activity.)

SMILES	D: compound efficacy for NMNAT2 activation; increase in NMNAT2 luciferase activity
CCC(=O)c1cn(CC(=O)NCc2cccnc2)c2ccccc12 [BC181226]	+ (“+” <20% increase in NMNAT2 luciferase activity.)
CCN(CC)C(=O)C(=O)c1cn(CC(=O)NCCc2ccccc2)c2ccccc12 [BC181227]	+ (“+” <20% increase in NMNAT2 luciferase activity.)
CCc1cccc2c(C(=O)C(=O)NCCc3ccccc3)cn(Cc3ccccc3)c12 [BC181228]	+ (“+” <20% increase in NMNAT2 luciferase activity.)
CCn1cc(CCCC(=O)NCc2ccc(F)cc2)c2ccccc21 [BC181229]	++ (“++” >20% and <100% increase in NMNAT2 luciferase activity.)
Cc1ccc(Cn2cc(CCCC(=O)NCc3ccco3)c3ccccc32)cc1 [BC181230]	+++ (“+++” >100% increase in NMNAT2 luciferase activity.)
Cc1ccc(Cn2cc(CCCC(=O)NCc3ccco3)c3ccccc32)cc1 [BC181231]	++ (“++” >20% and <100% increase in NMNAT2 luciferase activity.)
Cc1ccc(Cn2cc(CCCC(=O)NC(C)C)c3ccccc32)cc1 [BC181232]	+ (“+” <20% increase in NMNAT2 luciferase activity.)
CCCNC(=O)CCCc1cn(Cc2ccc(C)cc2)c2ccccc12 [BC181233]	+ (“+” <20% increase in NMNAT2 luciferase activity.)
COCCNC(=O)CCCc1cn(Cc2ccc(C)cc2)c2ccccc12 [BC181234]	++ (“++” >20% and <100% increase in NMNAT2 luciferase activity.)
Cc1ccccc1Cn1cc(CCCC(=O)NCc2ccco2)c2ccccc21 [BC181235]	++ (“++” >20% and <100% increase in NMNAT2 luciferase activity.)
Cc1ccccc1Cn1cc(CCC(=O)NCc2ccco2)c2ccccc21 [BC181237]	++ (“++” >20% and <100% increase in NMNAT2 luciferase activity.)
Cc1ccccc1Cn1cc(CCC(=O)NCC2=CC=CC2)c2ccccc21 [BC181238]	++ (“++” >20% and <100% increase in NMNAT2 luciferase activity.)
Cc1ccc(Cn2cc(CCC(=O)NCC3=CC=CC3)c3ccccc32)cc1 [BC181239]	+ (“+” <20% increase in NMNAT2 luciferase activity.)
Cc1ccc(Cn2cc(CCC(=O)NCc3ccco3)c3ccccc32)cc1 [BC181240]	+ (“+” <20% increase in NMNAT2 luciferase activity.)
Cc1ccccc1Cn1cc(CCC(=O)NCc2ccco2)c2ccccc21 [BC181241]	+ (“+” <20% increase in NMNAT2 luciferase activity.)
Cc1ccccc1Cn1cc(CCC(=O)NCC2=CC=CC2)c2ccccc21 [BC181242]	+ (“+” <20% increase in NMNAT2 luciferase activity.)
Cc1ccccc1Cn1cc(CCC(=O)NCc2ccco2)c2ccccc21 [BC181243]	++ (“++” >20% and <100% increase in NMNAT2 luciferase activity.)
Cc1ccccc1Cn1cc(CCC(=O)NCC2=CC=CC2)c2ccccc21 [BC181244]	++ (“++” >20% and <100% increase in NMNAT2 luciferase activity.)
Cc1ccc(C)c(Cn2cc(CCC(=O)NCc3ccco3)c3ccccc32)c1 [BC181245]	++ (“++” >20% and <100% increase in NMNAT2 luciferase activity.)
Cc1ccc(C)c(Cn2cc(CCC(=O)NCC3=CC=CC3)c3ccccc32)c1 [BC181246]	++ (“++” >20% and <100% increase in NMNAT2 luciferase activity.)
Cc1c(C)n(Cc2ccccc2)c2ccc(C(=O)NCc3ccco3)cc12 [BC181247]	+++ (“+++” >100% increase in NMNAT2 luciferase activity.)
Cc1ccc(CNC(=O)c2ccc3c(c2)c(C)c(C)n3Cc2ccccc2)o1 [BC181248]	++ (“++” >20% and <100% increase in NMNAT2 luciferase activity.)
Cc1ccc2c(c1)c(=O)c(C(=O)c1ccncc1)cn2CC(=O)NCc1ccccc1 [BC181249]	+ (“+” <20% increase in NMNAT2 luciferase activity.)
Cc1ccc(CNC(=O)Cn2cc(C(=O)c3ccncc3)c(=O)c3cc(C)ccc32)cc1 [BC181250]	+ (“+” <20% increase in NMNAT2 luciferase activity.)

system: NMNAT2; experiment: NMNAT2-Hibit nano-luciferase activity in transfected U87MG cells, 25 μM, 24 hours; type: cell-based; conditions: NMNAT2-Hibit luc plasmid, 24 hours (Table C)
Protocol: Selected compounds were tested in vitro. Briefly, U87MG cells were transfected with NMNAT2-Hibit luc plasmid. Cells were treated with a test compound at 25 μM for 24 hours. Cells were then collected and assayed for nano-luciferase activity.

SMILES	C: Compound efficacy for NMNAT2 activation; increase in NMNAT2 luciferase activity
O=C(NCCn1ccc2ccc(Cl)cc21)c1ccco1 [Compound 181156]	+ (“+” <20% increase in NMNAT2 luciferase activity.)
COc1ccc2c(ccn2CCNC(=O)c2ccco2)c1 [Compound 181157]	+ (“+” <20% increase in NMNAT2 luciferase activity.)
O=C(NCCn1ccc2cc(Br)ccc21)c1ccco1 [Compound 181158]	+ (“+” <20% increase in NMNAT2 luciferase activity.)
Cc1cc2ncn(CC(=O)NCc3ccco3)c2cc1C [Compound 181159]	+ (“+” <20% increase in NMNAT2 luciferase activity.)
